Measurements as given in patent US9493480B2, “Monomeric trioxane amide sulfur compounds” (THE JOHNS HOPKINS UNIVERSITY, priority 2011, dated 2016).

Legend:
[1] = system: Plasmodium berghei, ANKA malaria strain; assay: In vivo antimalarial efficacy, single oral dose of trioxane combined with mefloquine hydrochloride in P. berghei infected mice; settings: for cure outcome (survival to day 30 with no detectable parasites = complete cure): single oral dose of trioxane (6 mg/kg) combined with mefloquine hydrochloride (18 mg/kg); for parasitemia on day 30 after infection in surviving mice: value of one mouse where so stated
Experimental: […] Rosenthal, A. S., et al., Malaria-infected Mice are Cured by a Single Oral Dose of New Dimeric Trioxane Sulfones Which are Also Selectively and Powerfully Cytotoxic to Cancer Cells. J. Med. Chem. 2009, 52, 1198-1203. Each of four mice in a group was treated orally 24 hours post infection with a single dose of 0.20 mL [(0.20 mL/1.07 mL)×0.64 mg=0.12 mg] of diluted trioxane solution, […] Alternatively, a single dose of 7.5 mg/kg of trioxane plus 15.0 mg/kg of mefloquine hydrochloride was used. The malariometrics used involved determining blood parasitemia levels, as well as monitoring the duration of animal survival compared to survival time of infected animals receiving no drug.
The average survival time of the malaria-infected animals receiving no drug was 6.8 days post infection. All of the infected mice in this study receiving the trioxane drug artemether (2b) plus mefloquine died on the average on day 18.8 post infection (Table 1, controls). Additionally, a single oral dose of artemether (6 mg/kg) plus lumefantrine (18 mg/kg) was not curative (see Table 1), with the mice dying an average of 12.5 days after infection. […]
(§1) A widely accepted indication of complete cure (i.e., 100% efficacy) is survival of animals to day 30 post infection with no detectable malaria parasites in the animals' blood at that time. It is important to note that the combination of the standard trioxane drug artemether (2b), with either mefloquine hydrochloride or lumefantrine, was not curative (Table 1, controls). […] While 3-fluoroanilide 12b was not curative, administration of 3-methylthioether 3-arteSanilide 12d at a dose of 7.5 mg/kg plus 15 mg/kg mefloquine hydrochloride achieved mouse survival through day 30 after infection; however, all four of the surviving mice appeared sick and had considerable parasitemia levels (25-50%). […] In addition, 3-arteSanilide 12d is more efficacious than 4-arteSanilide 12c. […] Replacing the sulfur atom in 12d with an oxygen atom afforded methyl ether 12p, which prolonged survival time to only 21.8 days after infection. This observation indicates the critical nature of the sulfur atom. In addition, the lipophilicity of 3-arteSanilide 12d was increased by lengthening the alkyl sulfide chain from methyl to n-propyl. 3-n-Propyl sulfide 12l, however, is much less efficacious than the curative methyl sulfide 3-arteSanilide 12d.

[2] = system: P. falciparum (NF54) Parasites; assay: In vitro antimalarial potencies of trioxanes against P. falciparum (NF54) parasites; assay type: cell-based; settings: Plasmodium falciparum, M ± SD of at least four determinations
Experimental: Biology: In Vitro Potencies. Prompted by the unexpected in vivo efficacy of 3-arteSanilide 12d, the in vitro the intrinsic antimalarial activity, free of host-mediated factors, was assayed of compounds that differ in the oxidative state of the sulfur atom (Table 2).

[3] = Overt toxicity, behavior and weight gain of treated malaria-infected mice; assay type: in vivo; settings: single oral dose 100 mg/kg, no mefloquine
Experimental: as §1

[4] = single oral dose: trioxane 7.5 mg/kg + mefloquine hydrochloride 15 mg/kg
[5] = single oral dose: trioxane 7.5 mg/kg + mefloquine hydrochloride 15 mg/kg, mice, 4 per group
[6] = single oral dose 24 h post infection: trioxane 6 mg/kg + mefloquine hydrochloride 18 mg/kg, C57BL/6J male mice, 4 per group
[7] = single oral dose: trioxane 6 mg/kg + mefloquine hydrochloride 18 mg/kg
[8] = single oral dose: artemether 6 mg/kg + lumefantrine 18 mg/kg
[9] = mefloquine hydrochloride alone, single oral dose 15 mg/kg
[10] = mefloquine hydrochloride alone, single oral dose 18 mg/kg

Structure (SMILES)	% suppression of parasitemia (on day 3 after infection) [1, 4]	average survival (days) after infection [1, 5]	average survival (days) after infection [1, 6]	% suppression of parasitemia (on day 3 after infection) [1, 7]	further results
CSc1ccc(NC(=O)CC[C@H]2O[C@@H]3O[C@@]4(C)CC[C@H]5[C@H](C)CC[C@@H]([C@H]2C)[C@@]35OO4)cc1 [12c, 4-arteSanilide]	>99.9%	16.3 days			
CSc1ccccc1NC(=O)CC[C@H]1O[C@@H]2O[C@@]3(C)CC[C@H]4[C@H](C)CC[C@@H]([C@H]1C)[C@@]24OO3 [12e, 2-arteSanilide]			27.0 days	>99.9%	
CSc1cc(NC(=O)CC[C@H]2O[C@@H]3O[C@@]4(C)CC[C@H]5[C@H](C)CC[C@@H]([C@H]2C)[C@@]35OO4)cc(SC)c1 [12f, 3,5-arteSSanilide]			30 days	>99.9%	EC50 [2]: 6.5 ± 0.28 nM; inhibition in vivo at 100 mg/kg ([1]; Plasmodium berghei, 72 h, single oral dose: trioxane 100 mg/kg, no mefloquine, read-out: % suppression of parasitemia (on day 3 after infection)): 97.9%; mouse survival in words ([1]; single oral dose 100 mg/kg, no mefloquine): essentially no increase in mouse longevity; cure outcome (survival to day 30 with no detectable parasites = complete cure) [1]: partially curative; parasitemia on day 30 after infection in surviving mice [1, 7]: 5% and ^dThree mice were parasite-free on day 30, but one mouse had 5% parasitemia on day 30 after infection.; average survival (days) after infection ([1]; single oral dose: trioxane 100 mg/kg, no mefloquine): 7.5 days; toxicity of single oral dose [3]: nontoxic
C[C@H]1[C@@H](CCC(=O)Nc2cccc([S+](C)[O-])c2)O[C@@H]2O[C@@]3(C)CC[C@H]4[C@H](C)CC[C@@H]1[C@@]24OO3 (some centres unmarked) [12g]			23.0 days	>99.9%	EC50 [2]: 23 ± 1.3 nM; cure outcome (survival to day 30 with no detectable parasites = complete cure) [1]: does not
C[C@H]1[C@@H](CCC(=O)Nc2cccc([S+](C)[O-])c2)O[C@@H]2O[C@]3(C)CC[C@H]4[C@H](C)CC[C@@H]1[C@@]24OO3 (some centres unmarked) [12h]			30 days	>99.9%	EC50 [2]: 29 ± 0.43 nM; cure outcome (survival to day 30 with no detectable parasites = complete cure) [1]: partially curative; parasitemia on day 30 after infection in surviving mice [1, 7]: ^eOne mouse had 1.8% parasitemia on day 30 after infection.
C[C@H]1[C@@H](CCC(=O)Nc2ccc(S(C)(=O)=O)cc2)O[C@@H]2O[C@]3(C)CC[C@H]4[C@H](C)CC[C@@H]1[C@@]24OO3 [12i]	>99.9%	22.5 days			
C[C@H]1[C@@H](CCC(=O)Nc2cccc(S(C)(=O)=O)c2)O[C@@H]2O[C@@]3(C)CC[C@H]4[C@H](C)CC[C@@H]1[C@@]24OO3 [12j]	99.9%	15.5 days			EC50 [2]: 21 ± 1.1 nM
C[C@H]1[C@@H](CCC(=O)Nc2ccccc2S(C)(=O)=O)O[C@@H]2O[C@]3(C)CC[C@H]4[C@H](C)CC[C@@H]1[C@@]24OO3 [12k]	>99.9%	22.8 days			
CCCSc1cccc(NC(=O)CC[C@H]2O[C@@H]3O[C@]4(C)CC[C@H]5[C@H](C)CC[C@@H]([C@H]2C)[C@@]35OO4)c1 [12l]			23.0 days	>99.9%	
CCCS(=O)(=O)c1cccc(NC(=O)CC[C@H]2O[C@@H]3O[C@]4(C)CC[C@H]5[C@H](C)CC[C@@H]([C@H]2C)[C@@]35OO4)c1 [12m]			11.0 days	>99.9%	
CCCS(=O)(=O)c1ccccc1NC(=O)CC[C@H]1O[C@@H]2O[C@]3(C)CC[C@H]4[C@H](C)CC[C@@H]([C@H]1C)[C@@]24OO3 [12n]			21.8 days	>99.9%	
C[C@H]1[C@@H](CCC(=O)Nc2ccc(S(C)(=O)=O)cc2Cl)O[C@@H]2O[C@]3(C)CC[C@H]4[C@H](C)CC[C@@H]1[C@@]24OO3 [12o]	>99.9%	24.5 days			
COc1cccc(NC(=O)CC[C@H]2O[C@@H]3O[C@]4(C)CC[C@H]5[C@H](C)CC[C@@H]([C@H]2C)[C@@]35OO4)c1 [12p]			21.8 days	>99.9%	
CCCCCCOc1ccc(NC(=O)CC[C@H]2O[C@@H]3O[C@]4(C)CC[C@H]5[C@H](C)CC[C@@H]([C@H]2C)[C@@]35OO4)cc1 [12q]	>99.9%	15.0 days			
CO[C@H]1O[C@@H]2O[C@@]3(C)CC[C@H]4[C@H](C)CC[C@@H]([C@H]1C)[C@@]24OO3 [artemether (2b), artemether, reference compound]	>99.9%	19.8 days	18.8 days	>99.9%	% suppression of parasitemia (on day 3 after infection) [1, 8]: >99.9%; average survival (days) after infection [1, 8]: 12.5 days
CCCCN(CCCC)CC(O)c1cc(Cl)cc2c1-c1ccc(Cl)cc1/C2=C/c1ccc(Cl)cc1 (centres unmarked) [lumefantrine, reference compound]					inhibition in vivo at 18 mg/kg ([1]; Plasmodium berghei, po, 72 h, read-out: % suppression of parasitemia (on day 3 after infection)): > 99.9%; average survival (days) after infection ([1]; lumefantrine alone, single oral dose 18 mg/kg): 21.5 days
Cl.OC(c1cc(C(F)(F)F)nc2c(C(F)(F)F)cccc12)C1CCCCN1 (centres unmarked) [mefloquine, mefloquine hydrochloride, reference compound]					% suppression of parasitemia (on day 3 after infection) [1, 9]: >99.9%; average survival (days) after infection [1, 9]: 15.5 days; % suppression of parasitemia (on day 3 after infection) [1, 10]: >99.9%; average survival (days) after infection [1, 10]: 19.8 days
